What was measured:
Assay in all cases: Test 1A glasshouse assay, post-emergence herbicidal activity
Type in all cases: in vivo
[1] = system: Alopecurus myosuroides (ALOMY); conditions: application rate 250 g/ha, 13 days after application, visual (100%=total damage; 0%=no damage); for pest or weed control at 250 g/ha: Alopecurus myosuroides, 312 h, read-out: Post-emergence Herbicidal Activity (% Phytotoxicity) ALOMY
Procedure, shortened: (§1)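 Pots sown in standard soil; plants grown 8 days in glasshouse (24/16 °C day/night, 14 h light, 65% humidity), then sprayed with compound formulated in acetone/water (50:50) with 0.5% Tween 20. Regrown under same conditions, watered twice daily; visual % phytotoxicity scored 13 days after application (0 = none, 100 = total damage).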

Avena fatua (AVEFA) = conditions: Avena fatua, 312 h, application rate 250 g/ha, 13 days after application, visual (100%=total damage; 0%=no damage), read-out: Post-emergence Herbicidal Activity (% Phytotoxicity) AVEFA
Procedure, shortened: as §1

[2] = system: Echinochloa crus-galli (ECHCG); conditions: Echinochloa crus-galli, 312 h, application rate 250 g/ha, 13 days after application, visual (100%=total damage; 0%=no damage), read-out: Post-emergence Herbicidal Activity (% Phytotoxicity) ECHCG
Procedure, shortened: as §1

Lolium perenne (LOLPE) = conditions: Lolium perenne, 312 h, application rate 250 g/ha, 13 days after application, visual (100%=total damage; 0%=no damage), read-out: Post-emergence Herbicidal Activity (% Phytotoxicity) LOLPE
Procedure, shortened: as §1

Structure (SMILES)	pest or weed control at 250 g/ha [1] [%]	pest or weed control at 250 g/ha (Avena fatua (AVEFA)) [%]	pest or weed control at 250 g/ha [2] [%]	pest or weed control at 250 g/ha (Lolium perenne (LOLPE)) [%]	Post-emergence Herbicidal Activity (% Phytotoxicity) ALOMY [1] [%]
Cc1cc(-n2cc(Cl)cn2)cc(C)c1C1C(=O)CC(CCNC(=O)c2ncccc2F)C1=O (stereo not drawn) [Compound A133]	100	90	100	100	–
Cc1cc(-n2cc(Cl)cn2)cc(C)c1C1C(=O)CC(CCNC(=O)c2cccc(Br)n2)C1=O (stereo not drawn) [Compound A134]	100	100	100	100	–
Cc1cc(-n2cc(Cl)cn2)cc(C)c1C1C(=O)CC(CCNC(=O)c2cccc(F)n2)C1=O (stereo not drawn) [Compound A135]	100	90	100	100	–
Cc1cc(-n2cc(Cl)cn2)cc(C)c1C1C(=O)CC(CCNC(=O)c2ccc(Br)cn2)C1=O (stereo not drawn) [Compound A136]	100	90	100	100	–
Cc1cc(-n2cc(Cl)cn2)cc(C)c1C1C(=O)CC(CCNC(=O)c2ccc(C#N)cn2)C1=O (stereo not drawn) [Compound A137]	80	70	100	80	–
Cc1cc(-n2cc(Cl)cn2)cc(C)c1C1C(=O)CC(CCNC(=O)c2cc(Cl)ccn2)C1=O (stereo not drawn) [Compound A138]	100	90	100	100	–
Cc1cc(-n2cc(Cl)cn2)cc(C)c1C1C(=O)CC(CCNC(=O)c2cccc(C(F)(F)F)n2)C1=O (stereo not drawn) [Compound A139]	90	90	90	100	–
Cc1cc(-n2cc(Cl)cn2)cc(C)c1C1C(=O)CC(CCNC(=O)c2nc(Cl)ccc2Br)C1=O (stereo not drawn) [Compound A140]	90	100	100	100	–
C#CCOc1cc(C)c(C2C(=O)CC(CCNC(=O)c3ccccn3)C2=O)c(C)c1 (stereo not drawn) [Compound A141A]	80	80	80	70	–
Cc1cc(-n2cc(Cl)cn2)cc(C)c1C1C(=O)CC(CCNC(=O)c2cc(Cl)cc(Cl)n2)C1=O (stereo not drawn) [Compound A141]	60	10	100	70	–
Cc1cc(-n2cc(C#N)cn2)cc(C)c1C1C(=O)CC(CCNC(=O)c2ccccn2)C1=O (stereo not drawn) [Compound A142, N-[2-[3-[4-(4-cyanopyrazol-1-yl)-2,6-dimethyl-phenyl]-2,4-dioxo-cyclopentyl]ethyl]pyridine-2-carboxamide]	100	90	100	100	–
Cc1cc(C)c(C2C(=O)CC(CCNC(=O)c3nc(Cl)sc3C)C2=O)c(C)c1 (stereo not drawn) [Compound A143]	90	90	100	100	–
Cc1cc(Cl)c(C2C(=O)CC(CCNC(=O)c3ncccc3F)C2=O)c(Cl)c1 (stereo not drawn) [Compound A144]	30	90	100	90	–
Cc1cc(C)c(C2C(=O)CC(CCNC(=O)c3cc(Cl)cc(Cl)n3)C2=O)c(C)c1 (stereo not drawn) [Compound A146]	60	40	100	70	–
Cc1cc(C)c(C2C(=O)CC(CCNC(=O)c3cccc(C#N)n3)C2=O)c(C)c1 (stereo not drawn) [Compound A147]	60	60	60	70	–
Cc1cc(C)c(C2C(=O)CC(CCNC(=O)c3cc(C#N)ccn3)C2=O)c(C)c1 (stereo not drawn) [Compound A148]	70	90	90	90	–
Cc1cc(C)c(C2C(=O)CC(CCNC(=O)c3nc(F)ccc3Br)C2=O)c(C)c1 (stereo not drawn) [Compound A149]	100	100	100	100	–
Cc1cc(C)c(C2C(=O)CC(CCNC(=O)c3ncc(C#N)cc3Cl)C2=O)c(C)c1 (stereo not drawn) [Compound A150]	70	90	80	80	–

Structure (SMILES)	pest or weed control at 250 g/ha [1] [%]	pest or weed control at 250 g/ha (Avena fatua (AVEFA)) [%]	pest or weed control at 250 g/ha [2] [%]	pest or weed control at 250 g/ha (Lolium perenne (LOLPE)) [%]	Post-emergence Herbicidal Activity (% Phytotoxicity) ALOMY [1] [%]
Cc1cc(C)c(C2C(=O)CC(CCNC(=O)c3cccnc3F)C2=O)c(C)c1 (stereo not drawn) [Compound A151]	90	90	90	90	–
Cc1cc(C)c(C2C(=O)CC(CCNC(=O)c3cccnc3C(F)(F)F)C2=O)c(C)c1 (stereo not drawn) [Compound A152]	80	70	80	70	–
Cc1cc(-n2cc(Cl)cn2)cc(C)c1C1C(=O)CC(CCNC(=O)c2cc(Br)ccn2)C1=O (stereo not drawn) [Compound A154]	100	100	100	100	–
Cc1cc(-n2cc(Cl)cn2)cc(C)c1C1C(=O)CC(CCNC(=O)c2ccc(Cl)cn2)C1=O (stereo not drawn) [Compound A155]	100	100	100	100	–
Cc1ccnc(C(=O)NCCC2CC(=O)C(c3c(C)cc(-n4cc(Cl)cn4)cc3C)C2=O)c1 (stereo not drawn) [Compound A156]	50	90	100	90	–
Cc1cc(C)c(C2C(=O)CC(CCNC(=O)c3cncc(Cl)c3)C2=O)c(C)c1 (stereo not drawn) [Compound A157]	70	70	90	70	–
Cc1cc(C)c(C2C(=O)CC(CCNC(=O)c3ccc(F)nc3)C2=O)c(C)c1 (stereo not drawn) [Compound A158]	80	90	70	80	–
Cc1cc(C)c(C2C(=O)CC(CCNC(=O)c3nn(C)c(Cl)c3C)C2=O)c(C)c1 (stereo not drawn) [Compound A160]	90	100	100	90	–
Cc1cc(C)c(C2C(=O)CC(CCNC(=O)c3c(Cl)c(C(F)(F)F)nn3C)C2=O)c(C)c1 (stereo not drawn) [Compound A161]	90	100	100	100	–
Cc1cc(C)c(C2C(=O)CC(CCNC(=O)c3cc(C4CC4)on3)C2=O)c(C)c1 (stereo not drawn) [Compound A162]	70	90	90	100	–
Cc1cc(C)c(C2C(=O)CC(CCNC(=O)c3nnsc3C)C2=O)c(C)c1 (stereo not drawn) [Compound A164]	90	100	100	90	–
O=C(NCCC1CC(=O)C(c2c(Cl)cc(-c3ccc(F)cc3)cc2Cl)C1=O)c1cccc(F)n1 (stereo not drawn) [Compound A165]	90	100	100	100	–
Cc1cc(C)c(C2C(=O)CC(CCNC(=O)c3ccc(F)nc3F)C2=O)c(C)c1 (stereo not drawn) [Compound A166]	80	90	60	90	–
Cc1cc(C)c(C2C(=O)CC(CCNC(=O)c3ccc(C)nc3Cl)C2=O)c(C)c1 (stereo not drawn) [Compound A167]	60	30	90	70	–
Cc1cc(C)c(C2C(=O)CC(CCNC(=O)c3cccnc3Br)C2=O)c(C)c1 (stereo not drawn) [Compound A168]	60	80	80	70	–
Cc1cc(-n2cc(Cl)nn2)cc(C)c1C1C(=O)CC(CCNC(=O)c2ccccn2)C1=O (stereo not drawn) [Compound A170, N-[2-[3-[4-(4-chlorotriazol-1-yl)-2,6-dimethyl-phenyl]-2,4-dioxo-cyclopentyl]ethyl]pyridine-2-carboxamide]	90	100	100	90	90
Cc1cc(-n2ccnn2)cc(C)c1C1C(=O)CC(CCNC(=O)c2ccccn2)C1=O (stereo not drawn) [Compound A171]	0	10	60	10	–

— patent publication US9808003B2, “Herbicidally active 2-(substituted-phenyl)-cyclopentane-1,3-dione compounds and derivatives thereof” (Syngenta Limited, priority 2013, dated 2017)
